# According to patent US7795239B2, “Saccharide compositions and method of use” (Mueller Medical International LLC, priority 1992, dated 2010):
# Set-up: AUC for Cimetidine / AUC for Ranitidine: unit not given beside the values
# Settings: in vivo
SMILES,AUC for Cimetidine,dissolved drug not absorbed from the GI tract into the blood stream,AUC for Ranitidine
CN/C(=N/CCSCc1nc[nH]c1C)NC#N [cimetidine],54.3,15-20%,
NC(N)=Nc1nc(CSCCC(N)=NS(N)(=O)=O)cs1 [famotidine],,15-20%,
CNC(=C[N+](=O)[O-])NCCSCc1ccc(CN(C)C)o1 [ranitidine],,15-20%,55.2
